Test results reported in patent US20140228303A1, “NOVEL SGLT INHIBITORS” (Panacea Biotec Ltd, priority 2011, published 2014).

How the values were obtained:
mouse SGLT-2 = molecular target: T1, mouse SGLT-2 (Mus musculus, UniProt Q923I7); test: Methyl-α-D-[U-14C]Glucopyranoside uptake assay for SGLT-2 in CHO-K1 cells expressing mSGLT-2; type: cell-based; details: N.E. = Not Effective
T1 construct: Full-length mouse SGLT-2 cDNA was amplified from C57BL/6J mouse kidneys and introduced in the pcDNA3.1(+) expression vector; expressed in transfected cells
T1 sequence (Q923I7 1-670): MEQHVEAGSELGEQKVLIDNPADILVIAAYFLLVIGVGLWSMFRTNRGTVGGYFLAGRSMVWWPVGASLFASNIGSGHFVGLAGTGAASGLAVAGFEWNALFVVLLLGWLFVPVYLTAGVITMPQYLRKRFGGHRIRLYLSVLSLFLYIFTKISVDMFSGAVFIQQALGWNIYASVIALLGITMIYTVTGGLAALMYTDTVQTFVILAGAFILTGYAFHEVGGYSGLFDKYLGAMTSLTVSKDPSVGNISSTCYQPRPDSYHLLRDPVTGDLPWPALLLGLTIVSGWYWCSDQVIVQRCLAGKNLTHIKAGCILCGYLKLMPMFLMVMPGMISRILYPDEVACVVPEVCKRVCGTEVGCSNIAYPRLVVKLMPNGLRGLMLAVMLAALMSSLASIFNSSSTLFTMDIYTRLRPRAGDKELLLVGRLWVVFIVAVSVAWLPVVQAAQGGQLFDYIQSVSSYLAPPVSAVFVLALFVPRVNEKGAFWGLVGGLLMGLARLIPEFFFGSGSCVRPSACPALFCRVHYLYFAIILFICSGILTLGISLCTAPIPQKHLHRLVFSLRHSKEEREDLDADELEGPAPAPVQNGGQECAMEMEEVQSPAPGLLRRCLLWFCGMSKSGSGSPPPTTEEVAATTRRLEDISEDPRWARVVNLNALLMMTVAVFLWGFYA
Method: Preparation of Mouse SGLT-2 Expressing Cells
Full-length mouse SGLT-2 cDNA was amplified from C57BL/6J mouse kidneys and introduced in the pcDNA3.1(+) expression vector (Invitrogen, Inc.) and propagated in Escherichia coli strain DH5α using Luria-Bertani (LB) medium containing ampicillin. […] Stably transfected cells were selected using G418 antibiotic selection pressure.
Methyl-α-D-[U-^14C]Glucopyranoside Uptake Assay for SGLT-2
(§1) Cells expressing mSGLT-2 were seeded on 96-well tissue culture plates (Greiner, Inc.) in RPMI containing 10% FBS and 400 μg/mL G418 (0.8×10^5 cells per well in 200 μL medium) and incubated at 37° C. under 5% carbon dioxide for 24 h prior to the assay. Cells were washed twice with 200 μL of either sodium buffer (140 mM NaCl, 4.7 mM KCl, 2.2 mM CaCl2, 1.2 mM MgCl2, 10 mM Tris/Hepes, pH 7.4) or sodium-free buffer (137 mM N-methyl-glucamine, 4.7 mM KCl, 2.2 mM CaCl2, 1.2 mM MgCl2, 10 mM Tris/Hepes, pH 7.4). Reaction mixture containing test compounds at different concentrations diluted in assay buffer, 0.1 mM unlabeled Methyl-α-D-glucopyranoside and 1 μCi/well methyl-α-D[U-^14C]glucopyranoside (American Radiochemicals) was added per well of a 96-well plate and incubated at 37° C. for 1 h. Cells were washed thrice with 200 μL of wash buffer (140 mM NaCl, 4.7 mM KCl, 2.2 mM CaCl2, 1.2 mM MgCl2, 10 mM Tris/Hepes, pH 7.4 containing 500 μM phlorizin) and lysed using 50 μL of 0.25N NaOH. Methyl-α-D[U-^14C]glucopyranoside uptake was quantitated using a Top count scintillation counter (PerkinElmer, Inc.). All the test compounds were assayed in triplicates.

human SGLT-1 = molecular target: T2, human SGLT-1 (Homo sapiens, UniProt P13866); test: Methyl-α-D-[U-14C]Glucopyranoside uptake assay for SGLT-1 in CHO-K1 cells expressing hSGLT-1; type: cell-based; details: N.E. = Not Effective
T2 construct: Full-length human SGLT-1 cDNA in the pCMV-XL-Neo expression vector was obtained from Origene Corporation
T2 sequence (P13866 1-664): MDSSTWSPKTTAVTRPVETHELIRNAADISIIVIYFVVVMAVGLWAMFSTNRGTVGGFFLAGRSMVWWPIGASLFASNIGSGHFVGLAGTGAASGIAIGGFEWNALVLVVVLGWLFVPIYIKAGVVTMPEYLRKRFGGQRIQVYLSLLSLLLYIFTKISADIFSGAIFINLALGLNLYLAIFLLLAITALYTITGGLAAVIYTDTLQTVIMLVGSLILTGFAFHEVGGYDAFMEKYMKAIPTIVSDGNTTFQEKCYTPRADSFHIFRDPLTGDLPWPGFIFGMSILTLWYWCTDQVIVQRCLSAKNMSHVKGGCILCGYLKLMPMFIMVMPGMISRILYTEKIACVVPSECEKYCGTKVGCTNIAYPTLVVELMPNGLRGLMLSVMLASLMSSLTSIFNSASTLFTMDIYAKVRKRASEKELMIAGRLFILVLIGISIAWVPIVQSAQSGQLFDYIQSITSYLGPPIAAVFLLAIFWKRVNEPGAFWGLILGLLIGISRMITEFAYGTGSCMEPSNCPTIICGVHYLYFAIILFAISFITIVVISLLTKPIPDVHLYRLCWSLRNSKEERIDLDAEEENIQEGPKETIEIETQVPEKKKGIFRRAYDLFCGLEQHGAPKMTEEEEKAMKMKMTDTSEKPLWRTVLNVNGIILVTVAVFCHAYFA
Method: Preparation of Human SGLT-1 Expressing Cells
Full-length human SGLT-1 cDNA in the pCMV-XL-Neo expression vector was obtained from Origene Corporation and propagated in Escherichia coli strain DH5α using Luria-Bertani (LB) medium containing ampicillin. […] Stably transfected cells were selected using G418 antibiotic selection pressure.
Methyl-α-D-[U-^14C]Glucopyranoside Uptake Assay for SGLT-1
as §1, with “hSGLT-1” for “mSGLT-2”, “800 μg/ml” for “400 μg/mL”, “compounds” for “compounds at different concentrations”, “1” for “0.1”, “methyl-α-D-[U-^14C]glucopyranoside” for “methyl-α-D[U-^14C]glucopyranoside”, “Methyl-α-D-[U-^14C]glucopyranoside” for “Methyl-α-D[U-^14C]glucopyranoside”

C57BL/6J mice = test: Estimation of urinary glucose in C57BL/6J mice; type: in vivo, mouse; details: urine collected over 24 h
Method: Estimation of Urinary Glucose in C57BL/6J Mice
C57BL/6J mice were fasted 4 h before drug treatment. Fasted mice were weighed and randomized into different groups based on their body weight (n=6). At time T0 test compounds and standard compounds suspended in 0.25% CMC or PEG 400 formulation, were administered to respective groups and kept in metabolic cages (6 mice/cage) after dosing. Animals were fed after drug administration and urine was collected over a period of 24 h. Urinary volume was measured and urinary glucose was estimated using Merckotest Glucose Reagent (Merck Specialities Pvt. Ltd., India).

Rats = test: Estimation of urinary glucose in rat; type: in vivo; details: urine collected over 24 hrs
Method: Estimation of Urinary Glucose in Rat
Rats were fasted overnight (14 hrs) before drug treatment. Fasted rats were weighed and randomized into different groups based on their body weight (n=4). At time To test compounds and standard compound suspended in 0.25% C.M.C. or PEG 400 formulation were administered to respective groups and kept the animals in metabolic cages (1 rat/cage) after dosing. Animals were fed after drug administration and urine was collected over a period of 24 hrs. Urine volume was measured and urinary glucose was estimated using Merckotest Glucose Reagent (Merck Specialities Pvt. Ltd., India).

Compound	% inhibition of Methyl-α-D-[U-14C] Glucopyranoside uptake (CHO-K1 cells) mediated by SGLT-2 (mouse SGLT-2; 0.1 nM compound)	% inhibition of Methyl-α-D-[U-14C] Glucopyranoside uptake (CHO-K1 cells) mediated by SGLT-2 (mouse SGLT-2; 1 nM compound) [%]	% inhibition of Methyl-α-D-[U-14C] Glucopyranoside uptake (CHO-K1 cells) mediated by SGLT-2 (mouse SGLT-2; 10 nM compound) [%]	% inhibition of Methyl-α-D-[U-14C] Glucopyranoside uptake (CHO-K1 cells) mediated by SGLT-2 (mouse SGLT-2; 100 nM compound) [%]	% inhibition of Methyl-α-D-[U-14C] Glucopyranoside uptake (CHO-K1 cells) mediated by SGLT-1 (human SGLT-1; 100 nM compound)	% inhibition of Methyl-α-D-[U-14C] Glucopyranoside uptake (CHO-K1 cells) mediated by SGLT-1 (human SGLT-1; 1 μM compound)	% inhibition of Methyl-α-D-[U-14C] Glucopyranoside uptake (CHO-K1 cells) mediated by SGLT-1 (human SGLT-1; 10 μM compound) [%]	UGE in mice (in mg/g of feed consumed) at 3 mpk (C57BL/6J mice)	UGE in rat (in mg/g of feed consumed) at 3 mpk (Rats)
1-(4-(2-chloro-5-((1S,2S,3S,4R,5S)-2,3,4-trihydroxy-1-(hydroxymethyl)-6,8-dioxabicyclo[3.2.1]octan-5-yl)benzyl)phenyl)ethanone O-ethyl oxime [Compound 8]	N.E.	25.35	72.44	90.93	20.63%	55.66%	88.57	60.6 mg/g of feed consumed	–
1-(4-(2-chloro-5-((1S,2S,3S,4R,5S)-2,3,4-trihydroxy-1-(hydroxymethyl)-6,8-dioxabicyclo[3.2.1]octan-5-yl)benzyl)phenyl)ethanone O-methyl oxime [Compound 4]	–	–	–	–	–	–	–	76.2 mg/g of feed consumed	–
1-(4-(2-chloro-5-((1S,2S,3S,4R,5S)-2,3,4-trihydroxy-1-(hydroxymethyl)-6,8-dioxabicyclo[3.2.1]octan-5-yl)benzyl)phenyl)propan-1-one O-methyl oxime [Compound 3]	26.42%	26.10	59.52	93.34	N.E.	N.E.	63.64	81.9 mg/g of feed consumed	67.4 mg/g of feed consumed
1-(4-(2-chloro-5-((2S,3R,4R,5S,6R)-3,4,5-trihydroxy-6-(hydroxymethyl)tetrahydro-2H-pyran-2-yl)benzyl)phenyl)-propan-1-one O-methyl oxime [Compound 7]	44.36%	48.64	42.26	74.40	N.E.	N.E.	56.97	78.4 mg/g of feed consumed	–
1-(4-(2-chloro-5-((2S,3R,4R,5S,6R)-3,4,5-trihydroxy-6-(hydroxymethyl)tetrahydro-2H-pyran-2-yl)benzyl)phenyl)ethanone O-ethyl oxime [Compound 6]	44.05%	45.09	62.06	89.78	N.E.	22.68%	60.02	78.1 mg/g of feed consumed	–
1-(4-(2-chloro-5-((2S,3R,4R,5S,6S)-3,4,5-trihydroxy-6-methoxy tetrahydro-2H-pyran-2-yl)benzyl)phenyl)ethanone O-ethyl oxime [Compound 5]	23.91%	45.81	50.06	91.98	N.E.	N.E.	49.74	81.7 mg/g of feed consumed	–
CCON=C(CC)c1ccc(Cc2cc([C@@H]3O[C@H](CO)[C@@H](O)[C@H](O)[C@H]3O)ccc2Cl)cc1 [Compound 17]	–	–	–	–	–	–	–	64.5 mg/g of feed consumed	–
